# Target: T1, GCase (GBA) in human fibroblast cell line GM10915 harboring the L444P GBA mutation (Homo sapiens, UniProt P04062, L483P)
# T1 construct: Human fibroblast cell line GM10915 harboring the L444P GBA mutation; host or cells: GM10915 human fibroblasts
# T1 sequence (P04062 40-536 L483P): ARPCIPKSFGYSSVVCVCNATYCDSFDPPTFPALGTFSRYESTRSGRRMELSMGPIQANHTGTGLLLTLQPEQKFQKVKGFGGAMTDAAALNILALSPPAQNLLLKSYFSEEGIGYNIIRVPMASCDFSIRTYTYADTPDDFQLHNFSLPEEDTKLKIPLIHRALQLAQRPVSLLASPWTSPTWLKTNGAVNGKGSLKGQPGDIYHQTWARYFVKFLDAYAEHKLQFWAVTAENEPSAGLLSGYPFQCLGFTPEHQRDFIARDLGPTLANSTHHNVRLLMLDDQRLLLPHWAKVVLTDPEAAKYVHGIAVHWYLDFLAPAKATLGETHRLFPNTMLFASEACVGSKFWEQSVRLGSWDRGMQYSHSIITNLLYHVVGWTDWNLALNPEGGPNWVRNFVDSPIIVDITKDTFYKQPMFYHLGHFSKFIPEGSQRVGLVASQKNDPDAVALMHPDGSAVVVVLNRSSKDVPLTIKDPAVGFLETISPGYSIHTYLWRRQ
# Test: GCase activity assay (4-MUG substrate, normalised to crystal violet staining) in L444P GBA fibroblasts
# Format: cell-based
# Settings: 5 days exposure; for GBA EC1.5: concentration giving 150% GCase activity (1.5-fold induction), 8-point dose range; for Emax: maximum percent GCase activity relative to untreated cells in the dose range tested
# In short: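 Patient fibroblasts GM10915 (L444P GBA) exposed to compounds for five days over an 8-point range, with fresh dosing every 2–3 days. Intact-cell GCase measured with 2.5 mM 4-MUG at pH 4.0 for 23 h at 37 °C (ex/em 365/445 nm), normalised to crystal violet, as % of PBS basal; Emax is the maximum reached.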
Compound,GBA EC1.5,Emax
COc1ncc(CC2(C3=NOC(C)C(CN4CCCCC4)O3)CCN(C)C2)cc1Cl (stereo not drawn) [compound 646],50 µM,112%
COc1ncc(CC2(C3=NOC(C)C(CN4CCCCC4)O3)CCNC2)cc1Cl (stereo not drawn) [compound 647],50 µM,103%
O=C1CC(C2=NOCC(CN3CCCCC3)O2)CCN1 (stereo not drawn) [compound 649],50 µM,103%
OC1(C2=NOCC(CN3CCCCC3)O2)CCNCC1 (stereo not drawn) [compound 650],50 µM,141%
c1cc2n(n1)CCC(C1=NOCC(CN3CCCCC3)O1)C2 (stereo not drawn) [compound 656],50 µM,123%
c1cnc(N2CCC(C3=NOCC(CN4CCCCC4)O3)CC2)nc1 (stereo not drawn) [compound 658],50 µM,116%
c1ccc(N2CCCC(C3=NOCC(CN4CCCCC4)O3)C2)nc1 (stereo not drawn) [compound 661],50 µM,140%
c1nc2n(n1)CCC(C1=NOCC(CN3CCCCC3)O1)C2 (stereo not drawn) [compound 662],50 µM,138%
CN1C(=O)CC(C2=NOCC(CN3CCCCC3)O2)c2ccccc21 (stereo not drawn) [compound 664],50 µM,137%
O=c1[nH]nc2n1CCC(C1=NOCC(CN3CCCCC3)O1)C2 (stereo not drawn) [compound 668],50 µM,116%
CN(C)C(=O)N1CCCC(C2=NOCC(CN3CCCCC3)O2)C1 (stereo not drawn) [compound 670],50 µM,126%
CC(=O)NC1CCNCC1C1=NOCC(CN2CCCCC2)O1 (stereo not drawn) [compound 671],50 µM,146%
c1ccc(N2CCC(C3=NOCC(CN4CCCCC4)O3)C2)nc1 (stereo not drawn) [compound 672],50 µM,127%
CC(=O)N1CCC(C2=NOCC(CN3CCCCC3)O2)C1 (stereo not drawn) [compound 674],50 µM,123%
CN(C)C(=O)N1CCC(C2=NOCC(CN3CCCCC3)O2)C1 (stereo not drawn) [compound 675],50 µM,102%

# The remaining lines, values ahead:
GBA EC1.5,Emax,Compound
50 µM,120%,CN1CCC(C2=NOCC(CN3CCCCC3)O2)CC1=O (stereo not drawn) [compound 676]
50 µM,106%,c1ccc(N2CCC(C3=NOCC(CN4CCCCC4)O3)CC2)nc1 (stereo not drawn) [compound 678]
50 µM,107%,Nc1ccc(N2CCC(C3=NOCC(CN4CCCCC4)O3)CC2)nc1 (stereo not drawn) [compound 679]
50 µM,113%,CC(=O)N1CCC(C2=NOCC(CN3CCCCC3)O2)CC1 (stereo not drawn) [compound 683]
50 µM,109%,CN(C)C(=O)N1CCC(C2=NOCC(CN3CCCCC3)O2)CC1 (stereo not drawn) [compound 684]
50 µM,97%,CN1CCN(CC2CON=C(C3(Cc4cccnc4)CCNCC3)O2)CC1 (stereo not drawn) [compound 686]
50 µM,110%,Nc1ccc(N2CCCC(C3=NOCC(CN4CCCCC4)O3)C2)nc1 (stereo not drawn) [compound 687]
50 µM,137%,COC1CC(C2=NOCC(CN3CCCCC3)O2)CN(C)C1 (stereo not drawn) [compound 689]
50 µM,107%,CC(=O)N1CCCC1C1=NOCC(CN2CCCCC2)O1 (stereo not drawn) [compound 692]
50 µM,112%,c1cnc(N2CCC(C3=NOCC(CN4CCCCC4)O3)C2)nc1 (stereo not drawn) [compound 693]
50 µM,115%,CN(C)C(=O)N1CCCC1C1=NOCC(CN2CCCCC2)O1 (stereo not drawn) [compound 694]
50 µM,111%,CN1CCCC1C1=NOCC(CN2CCCCC2)O1 (stereo not drawn) [compound 695]
50 µM,107%,NC(=O)N1CCC(C2=NOCC(CN3CCCCC3)O2)C1 (stereo not drawn) [compound 697]
50 µM,137%,Nc1ccc(N2CCC(C3=NOCC(CN4CCCCC4)O3)C2)nc1 (stereo not drawn) [compound 698]
50 µM,110%,COc1cc(C)c(CC2(C3=NOCC(CN4CCCCC4)O3)CCNCC2)cn1 (stereo not drawn) [compound 702]
